Columns and labels:
PPARγ:RXRα heterodimer = target: T1, PPARγ:RXRα heterodimer (Homo sapiens, UniProt P19793+P37231); experiment: PPARγ:RXRα heterodimer formation HTRF assay, sGFP-RXRα LBD titrated against biotinylated PPARγ LBD coupled to Tb-SA; type: binding
T1 construct: His10-tag with TEV site (N, cleaved yes); made in house; host or cells: E. coli T7 express (co-expressed with GroEL/ES)
T1 sequence (P37231 234-505): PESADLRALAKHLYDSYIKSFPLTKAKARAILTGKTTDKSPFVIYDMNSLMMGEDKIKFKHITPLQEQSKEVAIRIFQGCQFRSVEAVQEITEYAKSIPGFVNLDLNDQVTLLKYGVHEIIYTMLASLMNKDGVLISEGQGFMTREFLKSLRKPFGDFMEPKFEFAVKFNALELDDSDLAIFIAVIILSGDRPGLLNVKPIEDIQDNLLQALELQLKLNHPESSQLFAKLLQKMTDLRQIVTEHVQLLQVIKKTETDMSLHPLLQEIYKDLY
T1 sequence (P19793 226-462): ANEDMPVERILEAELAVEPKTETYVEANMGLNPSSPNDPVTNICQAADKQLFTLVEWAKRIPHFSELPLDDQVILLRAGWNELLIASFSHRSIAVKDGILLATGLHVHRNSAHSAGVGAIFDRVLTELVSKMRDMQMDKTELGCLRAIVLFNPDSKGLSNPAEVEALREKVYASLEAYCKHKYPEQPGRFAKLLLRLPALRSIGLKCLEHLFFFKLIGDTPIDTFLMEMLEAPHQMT

PPARγ LBD = target: T2, PPARγ LBD (Homo sapiens, UniProt P37231); experiment: Monomer cofactor recruitment HTRF assay: CBP-1 recruitment by isolated sGFP-PPARγ LBD; type: biochemical; settings: versus 1 μM Rosi
T2 construct: His10-tag with TEV site (N, cleaved yes); made in house; host or cells: E. coli T7 express (co-expressed with GroEL/ES)
T2 sequence (P37231 234-505): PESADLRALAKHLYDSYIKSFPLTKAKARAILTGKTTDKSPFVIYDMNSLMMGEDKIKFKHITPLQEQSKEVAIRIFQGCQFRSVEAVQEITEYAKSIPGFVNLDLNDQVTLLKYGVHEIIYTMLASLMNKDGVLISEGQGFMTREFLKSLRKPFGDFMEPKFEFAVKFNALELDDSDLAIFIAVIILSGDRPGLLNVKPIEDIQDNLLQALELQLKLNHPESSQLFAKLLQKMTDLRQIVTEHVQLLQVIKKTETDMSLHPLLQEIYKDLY

[1] = target: T3, PPARγ LBD in complex with RXRα LBD (Homo sapiens, UniProt P37231); experiment: Heterodimer coactivator recruitment HTRF assay: CBP-1 recruitment by PPARγ LBD in complex with sGFP-RXRα LBD total mutant; type: biochemical
T3 construct: His10-tag with TEV site (N, cleaved yes); made in house; host or cells: E. coli T7 express (co-expressed with GroEL/ES)
T3 sequence (P37231 234-505): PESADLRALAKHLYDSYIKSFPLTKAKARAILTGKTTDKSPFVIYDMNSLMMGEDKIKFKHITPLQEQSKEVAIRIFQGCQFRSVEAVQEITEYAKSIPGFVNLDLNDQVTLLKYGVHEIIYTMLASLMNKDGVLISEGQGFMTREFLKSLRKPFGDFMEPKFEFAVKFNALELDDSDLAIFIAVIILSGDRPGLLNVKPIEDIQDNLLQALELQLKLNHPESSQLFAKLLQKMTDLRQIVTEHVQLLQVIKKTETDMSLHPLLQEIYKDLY
T3 sequence (P19793 226-462 V280T/K284E/V298T/F450Y/E453R partner limits assumed): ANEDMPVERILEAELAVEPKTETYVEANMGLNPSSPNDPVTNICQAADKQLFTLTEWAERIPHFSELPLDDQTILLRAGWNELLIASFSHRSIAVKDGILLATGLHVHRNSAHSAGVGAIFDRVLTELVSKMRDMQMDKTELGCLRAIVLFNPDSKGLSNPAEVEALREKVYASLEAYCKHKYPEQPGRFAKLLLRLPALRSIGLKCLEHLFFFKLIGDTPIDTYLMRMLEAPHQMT

PPARγ = settings: cited from earlier work
RXRα homodimer = target: T4, RXRα homodimer (Homo sapiens, UniProt P19793); experiment: RXRα homodimer formation HTRF assay, sGFP-RXRα LBD titrated against biotinylated RXRα LBD (wildtype); type: binding; settings: 10 μM ligand compared with no ligand
T4 construct: His10-tag with TEV site (N, cleaved yes); made in house; host or cells: E. coli T7 express (co-expressed with GroEL/ES)
T4 sequence (P19793 226-462) 1: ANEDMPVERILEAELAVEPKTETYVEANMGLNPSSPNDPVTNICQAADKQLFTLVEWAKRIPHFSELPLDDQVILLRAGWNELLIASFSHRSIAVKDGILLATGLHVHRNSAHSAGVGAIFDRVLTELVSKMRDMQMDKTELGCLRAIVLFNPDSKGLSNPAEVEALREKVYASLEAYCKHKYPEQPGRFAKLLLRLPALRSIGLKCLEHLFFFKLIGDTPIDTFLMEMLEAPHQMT
T4 sequence (P19793 226-462) 2: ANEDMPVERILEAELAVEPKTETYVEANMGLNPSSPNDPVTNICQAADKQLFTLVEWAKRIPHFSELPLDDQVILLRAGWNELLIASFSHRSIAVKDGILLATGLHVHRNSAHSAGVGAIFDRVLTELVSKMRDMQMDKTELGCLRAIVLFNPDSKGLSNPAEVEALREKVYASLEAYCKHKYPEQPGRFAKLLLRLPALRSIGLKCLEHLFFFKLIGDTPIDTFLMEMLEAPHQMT

[2] = target: T3, PPARγ LBD in complex with RXRα LBD; settings: cited from earlier work
RXRα LBD wildtype = settings: cited from earlier work

In the case of O=C(Nc1ccccc1)c1cc([N+](=O)[O-])ccc1Cl [GW9662], the “effect on PPARγ:RXRα heterodimer formation” value (PPARγ:RXRα heterodimer; 1 μM ligand compared with apo) is reported as “did not affect heterodimer formation”, the “Monomer recruitment, antagonist mode, Max inhibition (%)” value (PPARγ LBD) is reported as 62% and the IC50 (PPARγ LBD; read-out: Monomer recruitment, antagonist mode, Potency (IC50)) is reported as 1.2 ± 0.07 µM. For the same molecule, the “Dimer recruitment, antagonist mode, Max inhibition (%)” value ([1]; versus 1 μM Rosi) was 52%.

In the case of O=S(=O)(Nc1cc(Cl)c(Oc2cnc3ccccc3c2)c(Cl)c1)c1ccc(Cl)cc1Cl [INT131], the “degree of activation of PPARγ compared with rosiglitazone” value (PPARγ) is given as 30%.

For O=C(O)c1c(Sc2ccccc2)c2cc(Cl)ccc2n1Cc1ccccc1 [SR145], the “degree of activation of PPARγ compared with rosiglitazone” value (PPARγ) is listed as ~ 35%.

In the case of O=C(O)Cc1cc(I)c(Oc2cc(I)c(O)c(I)c2)c(I)c1 [TETRAC, 3,3',5,5'-tetraiodothyroacetic acid], the “effect on PPARγ:RXRα heterodimer formation” value (PPARγ:RXRα heterodimer; 10 μM ligand compared with no ligand) is reported as “strongly reduced the apparent Kd”, the “reduction in the apparent Kd of dimer formation” value (PPARγ:RXRα heterodimer; 10 μM ligand in comparison with dimethyl sulfoxide control) is reported as 4 fold and the “effect on RXRα homodimer formation” value (RXRα homodimer) is reported as “slightly but significantly weakened”. For the same molecule, the “enhancement of CBP-1 recruitment in comparison with 1 μM rosiglitazone” value [2] was “approximately 50%”, the “activation of RXRα in comparison with 1 μM SR11237” value (RXRα LBD wildtype) was “below 10%” and the EC50 (RXRα LBD wildtype; read-out: EC50 of activation of RXRα) was about 10 µM.

With GW1929 the “reduction of the apparent Kd of heterodimer formation” value (PPARγ:RXRα heterodimer; 1 μM ligand compared with apo) was 3 fold, the “change of EC50 in the heterodimer setting in comparison with monomeric PPARγ LBD” value [1] was “about 2 fold” and the “Dimer recruitment, agonist mode, Efficacy (%)” value ([1]; normalized to rosiglitazone in the heterodimer) was 118%.

Reference: paper PMC8258697 (The Journal of Biological Chemistry, 2021)
